{"source": "patent US20240206462A1", "about": "“ESSENTIAL OIL-BASED AGRICULTURAL COMPOSITION AND METHOD FOR CONTROLLING A PEST USING THE SAME” (MOMENTIVE PERFORMANCE MATERIALS INC., priority 2021, published 2024)", "test_system": "tomato grey mold (Botrytis cinerea)", "test": "Plate method growth inhibition of fungal plant pathogen on PDA medium", "format": "cell-based", "conditions": "concluded from geraniol-based compositions", "data": [{"compound": "CC(C)=CCCC(C)=CCO", "note": "[geraniol, 3,7-dimethylocta-2,6-dien-1-ol]", "values": [{"measurement": "inhibition activity on Botrytis genus, especially Botrytis cinerea", "value": "high inhibition activity"}]}]}
